{"source": "paper PMC10545790", "key": {"[1]": {"test": "Determination of pKa values (potentiometric titration)", "assay_type": "physicochemical", "conditions": "methanol-water (1:4) solution of NaCl; titration method; potentiometric acid-base titration at 25 °C in methanol-water (1:4), 150 mM NaCl; read-out: pKa (exp.)", "protocol": "Data is obtained by the titration method. Para-methyl benzoic acid (83) is used as a reference. TEXT PRINTED IN THE PICTURE: 83: pKa (exp.): 4.5 ± 0.1 | 84: pKa (exp.): 5.6 ± 0.1 | 47: pKa (exp.): 4.4 ± 0.1 | 54: pKa (exp.): 4.1 ± 0.1 […]\nDetermination of pKa values\nThe tendency of a compound to donate proton is measured as its acid ionization constant (dissociation constant), or Ka. A more practical scale of representing acidity is pKa which is the negative logarithm of the Ka (pKa = -log Ka). pKa of a test article is determined by pH-metric method based on potentiometric acid-base titration at 25 °C. The test compounds are dissolved in acidified methanol-water (1:4) solution of NaCl (150 mM, pH 2) and slowly titrated with 0.3 M sodium hydroxide methanol-water (1:4) solution, while recording pH of the solution as a function of NaOH volume used during the titration (construction of the titration curve). Titration of acidified NaCl solution in absence of any compounds is used for blank plotting.5-8 Buffering capacity is calculated in each point of titration curve as the ratio of the NaOH flow (constant) to the pH rise velocity. The pKa value is determined from resulting plot of buffering capacity versus pH as the maximum of buffering capacity. pH-metric method allows to measure pKas in the range of approximately between 2 and 12. […]\nmeter, pHi®510 (Beckman Coulter, Canada; Cat# A58734). Data analysis was done using GraphPad […]\nSodium hydroxide (Enamine, Ukraine; CAS # 1310-73-2)\nSodium chloride BioXtra, ≥99.5% (AT) (Sigma-Aldrich, USA; Cat # S7653)\nHydrochloric acid (Enamine, Ukraine; CAS # 7647-01-0)\nDisposable pipette tips (Eppendorf, German; Matrix and Finntip, Thermo, USA) Polypropylene graduated conical tubes, 50 mL (Kartell, Italy; Cat. # 84002) Polypropylene syringe (10 mL) with tubing (Hemoplast, Ukraine) […]\npH-meter, pHi®510 (Beckman Coulter, Canada; Cat# A58734)\nMultichannel Electronic Pipettes 5-50 µL, 10-1000 µL (Thermo, USA)\nMagnetic stirrer standard unit (IKA, USA)\nSyringe Driver Mdl 100 (KDScientific, USA)"}, "[2]": {"test": "Thermal and chemical stability", "assay_type": "physicochemical", "conditions": "for chemical stability in acid: aq. 1 M HCl; for chemical stability in acid / chemical stability in base / stability on storage: room temperature; for chemical stability in acid / chemical stability in base: 1 h; for chemical stability in base: aq. 1 M NaOH; for thermal stability: heating at 100 °C for five minutes; for stability on storage: in air, closed vials, one year, 1H NMR", "source_text": "We also examined the thermal and chemical stability of the synthesized 2-oxabicyclo[2.2.2]octanes. As representative examples, we selected three molecules: isomeric acids 47, 54, and amine 52. All 2-oxabicyclo[2.2.2]octanes were crystalline solids that were stable in air. We stored them in stock at room temperature in closed vials and observed no changes according to ^1H NMR after one year. […] Treatment of the selected 2-oxabicyclo[2.2.2]octanes with aq. 1 M HCl, or aq."}, "[3]": {"test": "Kinetic solubility in phosphate-buffered saline, pH 7.4"}, "human liver microsomes [4]": {"test_system": "human liver microsomes", "test": "Metabolic stability in human liver microsomes", "conditions": "human liver microsomes"}, "[5]": {"test": "Metabolic stability in human liver microsomes", "conditions": "both, human, liver microsomes (pooled)"}, "physchem": {"test": "physchem", "conditions": "pH 7.4, logD (7.4): experimental distribution coefficient in n-octanol/phosphate-buffered saline"}, "ABL1 kinase": {"biological_target": "ABL1 kinase (Homo sapiens, UniProt P00519)", "sequence (P00519 whole entry)": "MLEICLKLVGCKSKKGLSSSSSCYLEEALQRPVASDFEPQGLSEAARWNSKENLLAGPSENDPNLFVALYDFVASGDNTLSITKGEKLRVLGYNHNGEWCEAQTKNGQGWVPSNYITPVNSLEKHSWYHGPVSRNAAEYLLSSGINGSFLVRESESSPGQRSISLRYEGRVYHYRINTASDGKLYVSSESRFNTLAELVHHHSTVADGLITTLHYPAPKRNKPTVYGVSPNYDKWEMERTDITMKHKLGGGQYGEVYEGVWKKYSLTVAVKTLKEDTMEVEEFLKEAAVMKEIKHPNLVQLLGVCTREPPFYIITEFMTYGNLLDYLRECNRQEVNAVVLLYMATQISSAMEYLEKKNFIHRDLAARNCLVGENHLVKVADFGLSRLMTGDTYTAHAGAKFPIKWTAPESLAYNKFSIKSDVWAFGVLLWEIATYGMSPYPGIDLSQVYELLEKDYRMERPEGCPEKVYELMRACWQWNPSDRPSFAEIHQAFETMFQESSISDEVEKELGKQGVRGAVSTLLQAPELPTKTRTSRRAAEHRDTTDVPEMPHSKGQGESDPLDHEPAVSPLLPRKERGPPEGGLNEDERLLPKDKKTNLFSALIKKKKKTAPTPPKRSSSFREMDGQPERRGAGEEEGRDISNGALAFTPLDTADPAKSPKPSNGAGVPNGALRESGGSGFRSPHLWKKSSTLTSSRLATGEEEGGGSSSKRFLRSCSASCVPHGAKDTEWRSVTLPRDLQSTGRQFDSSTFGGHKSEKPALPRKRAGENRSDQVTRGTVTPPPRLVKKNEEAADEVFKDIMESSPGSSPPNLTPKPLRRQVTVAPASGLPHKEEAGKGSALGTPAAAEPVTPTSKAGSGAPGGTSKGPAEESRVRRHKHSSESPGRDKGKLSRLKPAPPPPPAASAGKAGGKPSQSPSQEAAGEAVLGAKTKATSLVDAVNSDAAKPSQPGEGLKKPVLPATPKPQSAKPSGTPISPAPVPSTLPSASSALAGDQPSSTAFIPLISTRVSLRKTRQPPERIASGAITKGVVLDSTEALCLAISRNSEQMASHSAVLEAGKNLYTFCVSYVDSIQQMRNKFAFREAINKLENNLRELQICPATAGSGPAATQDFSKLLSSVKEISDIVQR", "conditions": "for Luminescence, Raw Data (LUM): ADP-Glo"}, "human liver microsomes [6]": {"test_system": "human liver microsomes", "conditions": "both, 2 µM, pH 7.4"}}, "note": "“And” between values parts separate entries of the source, which are not always exact repeats. Equal values may be shown once. “Also recorded” adds a separate entry of the source. Read-outs that look alike come from different tables or passages of the source.", "data": [{"smiles": "CC12CCC(C(=O)O)(CC1)OC2", "note": "[Compound 54]", "values": [{"measurement": "pKa", "setting": "[1]", "value": 4.1}, {"measurement": "chemical stability in acid", "setting": "[2]", "value": "no decomposition"}, {"measurement": "chemical stability in base", "setting": "[2]", "value": "no decomposition"}, {"measurement": "thermal stability", "setting": "[2]", "value": "remained stable"}, {"measurement": "stability on storage", "setting": "[2]", "value": "no changes"}]}, {"smiles": "Cc1ccc(NC(=O)C23CCC(CN4CCN(C)CC4)(CC2)OC3)cc1Nc1nccc(-c2cccnc2)n1", "note": "[Compound 85]", "values": [{"measurement": "solubility kinetic at 2 h", "setting": "[3]; 25 °C, pH 7.4, aqueous buffer, kinetic from dmso stock", "value": 389, "unit": "µM"}, {"measurement": "CLint", "setting": "human liver microsomes [4]", "value": 19}, {"measurement": "t1/2: half-time of a metabolic decomposition", "setting": "human liver microsomes [4]; 2 μM compound, NADPH, 37 °C", "value": 1.45, "unit": "h"}, {"measurement": "k el at 2 µM", "setting": "[5]; pH 7.4", "value": 0.000133, "unit": "s⁻¹"}, {"measurement": "microsomal CLint at 2 µM", "setting": "[5]; pH 7.4", "value": 19, "unit": "µL/min/mg"}, {"measurement": "remaining at 40 min, 2 µM", "setting": "[5]; pH 7.4, % Remaining without cofactor, Mean of 2, human liver microsomes, NADPH-cofactor system substituted with phosphate buffer", "value": 118, "unit": "%"}, {"measurement": "remaining at 7 min, 2 µM", "setting": "[5]; pH 7.4, % Remaining, Mean of 2, human liver microsomes with NADPH, 7 min", "value": 101, "unit": "%"}, {"measurement": "remaining at 0.25 h, 2 µM", "setting": "[5]; pH 7.4, % Remaining, Mean of 2, human liver microsomes with NADPH, 15 min", "value": 98, "unit": "%"}, {"measurement": "remaining at 25 min, 2 µM", "setting": "[5]; pH 7.4, % Remaining, Mean of 2, human liver microsomes with NADPH, 25 min", "value": 90, "unit": "%"}, {"measurement": "remaining at 40 min, 2 µM", "setting": "[5]; pH 7.4, % Remaining, Mean of 2, human liver microsomes with NADPH", "value": 73, "unit": "%"}, {"measurement": "half-life at 2 µM", "setting": "[5]; pH 7.4, t1/2: half-time of a metabolic decomposition, human liver microsomes, 2 μM compound, NADPH, 37 °C", "value": 1.45, "unit": "h"}, {"measurement": "logD", "setting": "physchem", "value": 1.8}, {"measurement": "inhibitory effect on the catalytic activity of ABL1 kinase (in words)", "setting": "ABL1 kinase; ADP-Glo Kinase Assay, 12 concentration points", "value": "did not observe any significant inhibitory effect; also recorded: inactive"}, {"measurement": "Luminescence, Raw Data (LUM)", "setting": "ABL1 kinase; 1st run, plate ABL1_CpdsTitr_Read1, single wells, compound 15 nM", "value": "1058 and 1113 and 1791 and 1922"}, {"measurement": "Luminescence, Raw Data (LUM)", "setting": "ABL1 kinase; 1st run, plate ABL1_CpdsTitr_Read1, single wells, compound 29 nM", "value": "1154 and 1300 and 1938 and 1968"}, {"measurement": "Luminescence, Raw Data (LUM)", "setting": "ABL1 kinase; 1st run, plate ABL1_CpdsTitr_Read1, single wells, compound 59 nM", "value": "1819 and 1993 and 1840 and 1873"}, {"measurement": "Luminescence, Raw Data (LUM)", "setting": "ABL1 kinase; 1st run, plate ABL1_CpdsTitr_Read1, single wells, compound 117 nM", "value": "2012 and 2091 and 2063 and 1940"}, {"measurement": "Luminescence, Raw Data (LUM)", "setting": "ABL1 kinase; 1st run, plate ABL1_CpdsTitr_Read1, single wells, compound 234 nM", "value": "1243 and 1296 and 1230 and 1333"}, {"measurement": "Luminescence, Raw Data (LUM)", "setting": "ABL1 kinase; 1st run, plate ABL1_CpdsTitr_Read1, single wells, compound 469 nM", "value": "1542 and 1412 and 1342 and 1622"}, {"measurement": "Luminescence, Raw Data (LUM)", "setting": "ABL1 kinase; 1st run, plate ABL1_CpdsTitr_Read1, single wells, compound 938 nM", "value": "1188 and 1448 and 1337 and 1335"}, {"measurement": "Luminescence, Raw Data (LUM)", "setting": "ABL1 kinase; 1st run, plate ABL1_CpdsTitr_Read1, single wells, compound 1500 nM", "value": "1805 and 977 and 1232 and 1070"}, {"measurement": "Luminescence, Raw Data (LUM)", "setting": "ABL1 kinase; 1st run, plate ABL1_CpdsTitr_Read1, single wells, compound 1875 nM", "value": "1156 and 1302 and 1289 and 1256"}, {"measurement": "Luminescence, Raw Data (LUM)", "setting": "ABL1 kinase; 1st run, plate ABL1_CpdsTitr_Read1, single wells, compound 3000 nM", "value": "1327 and 1543 and 1534 and 1388"}, {"measurement": "Luminescence, Raw Data (LUM)", "setting": "ABL1 kinase; 1st run, plate ABL1_CpdsTitr_Read1, single wells, compound 3750 nM", "value": "1381 and 1311 and 1134"}, {"measurement": "Luminescence, Raw Data (LUM)", "setting": "ABL1 kinase; 1st run, plate ABL1_CpdsTitr_Read1, single wells, compound 7500 nM", "value": "1269 and 1270 and 1321 and 1071"}, {"measurement": "Luminescence, Raw Data (LUM)", "setting": "ABL1 kinase; 2nd run, plate ABL1_CpdsTitr2_Read1, single wells, compound 15 nM", "value": "6198 and 6465 and 5917 and 6372"}, {"measurement": "Luminescence, Raw Data (LUM)", "setting": "ABL1 kinase; 2nd run, plate ABL1_CpdsTitr2_Read1, single wells, compound 29 nM", "value": "7090 and 6257 and 6692 and 6143"}, {"measurement": "Luminescence, Raw Data (LUM)", "setting": "ABL1 kinase; 2nd run, plate ABL1_CpdsTitr2_Read1, single wells, compound 59 nM", "value": "6364 and 6701 and 5655 and 6486"}, {"measurement": "Luminescence, Raw Data (LUM)", "setting": "ABL1 kinase; 2nd run, plate ABL1_CpdsTitr2_Read1, single wells, compound 117 nM", "value": "6190 and 6555 and 5494 and 6585"}, {"measurement": "Luminescence, Raw Data (LUM)", "setting": "ABL1 kinase; 2nd run, plate ABL1_CpdsTitr2_Read1, single wells, compound 234 nM", "value": "5219 and 5282 and 5107 and 4913"}, {"measurement": "Luminescence, Raw Data (LUM)", "setting": "ABL1 kinase; 2nd run, plate ABL1_CpdsTitr2_Read1, single wells, compound 469 nM", "value": "6324 and 5692 and 5791 and 5812"}, {"measurement": "Luminescence, Raw Data (LUM)", "setting": "ABL1 kinase; 2nd run, plate ABL1_CpdsTitr2_Read1, single wells, compound 938 nM", "value": "6138 and 6238 and 6011 and 5496"}, {"measurement": "Luminescence, Raw Data (LUM)", "setting": "ABL1 kinase; 2nd run, plate ABL1_CpdsTitr2_Read1, single wells, compound 1500 nM", "value": "5294 and 5538 and 5113 and 5062"}, {"measurement": "Luminescence, Raw Data (LUM)", "setting": "ABL1 kinase; 2nd run, plate ABL1_CpdsTitr2_Read1, single wells, compound 1875 nM", "value": "6881 and 6876 and 6366 and 6488"}, {"measurement": "Luminescence, Raw Data (LUM)", "setting": "ABL1 kinase; 2nd run, plate ABL1_CpdsTitr2_Read1, single wells, compound 3000 nM", "value": "4805 and 5280 and 4474 and 4682"}, {"measurement": "Luminescence, Raw Data (LUM)", "setting": "ABL1 kinase; 2nd run, plate ABL1_CpdsTitr2_Read1, single wells, compound 3750 nM", "value": "6509 and 5880 and 6068 and 5810"}, {"measurement": "Luminescence, Raw Data (LUM)", "setting": "ABL1 kinase; 2nd run, plate ABL1_CpdsTitr2_Read1, single wells, compound 7500 nM", "value": "6480 and 6469 and 6139 and 5760"}]}, {"smiles": "Cc1ccc(C(=O)O)cc1", "note": "[Compound 83, para-methyl benzoic acid, reference compound]", "values": [{"measurement": "pKa", "setting": "[1]", "value": 4.5}]}, {"smiles": "CC12CCC(C(=O)O)(CC1)CC2", "note": "[Compound 84, reference compound]", "values": [{"measurement": "pKa", "setting": "[1]", "value": 5.6}]}, {"smiles": "Cc1nccn1CC1CCc2c(c3ccccc3n2C)C1=O", "note": "(centres unmarked) [Ondansetron, reference compound]", "values": [{"measurement": "solubility kinetic at 2 h", "setting": "[3]; pH 7.4", "value": 126, "unit": "µM"}]}, {"smiles": "O=C(O)Cc1ccccc1Nc1c(Cl)cccc1Cl", "note": "[Diclofenac]", "values": [{"measurement": "kel (elimination constant)", "setting": "human liver microsomes [6]", "value": 0.119, "unit": "min⁻¹"}, {"measurement": "% Remaining, Mean of 2", "setting": "human liver microsomes [6]; microsomes, 7 min", "value": 49, "unit": "%"}, {"measurement": "% Remaining without cofactor, Mean of 2", "setting": "human liver microsomes [6]; microsomes, 40 min", "value": 91, "unit": "%"}]}, {"smiles": "CC12CCC(C(=O)O)(CC1)CO2", "note": "[Compound 47]", "values": [{"measurement": "pKa", "setting": "[1]", "value": 4.4}, {"measurement": "chemical stability in acid", "setting": "[2]", "value": "no decomposition"}, {"measurement": "chemical stability in base", "setting": "[2]", "value": "no decomposition"}, {"measurement": "thermal stability", "setting": "[2]", "value": "remained stable"}, {"measurement": "stability on storage", "setting": "[2]", "value": "no changes"}]}]}
